The text below walks through data of patent US8309577B2, “Quinuclidine compounds as α-7 nicotinic acetylcholine receptor ligands” (Bristol-Myers Squibb Company, priority 2008, dated 2012).

Data set [1] has as its target T1, α-7 nicotinic acetylcholine receptor channel expressed in HEK 293 cells (Rattus norvegicus, UniProt Q05941).
T1 construct: expressed in transfected cells
Briefly: Ca2+-sensitive fluorescence-based FLIPR assay, α7 nicotinic ACh receptor channel function (agonist). The conditions noted are these: HEK 293 cells, agonist Ca2+ flux. It counts as cell-based. Put shortly:
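Potency and efficacy derived from kinetic FLIPR Ca²⁺-flux fluorescence, recorded 3 min after compound addition in Hanks buffer following a 10 s baseline.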

Data set [2] relates to mucosal mast cells. The conditions noted are these: Kageyama-Yahara et al. 2008; cited from earlier work.
[3] abbreviates: FLIPR α7 activity rating (EC50, nM), Table 1.
Setting [4] is: FLIPR α7 activity rating (EC50, nM), Table Ib.

Molecules are shown by their SMILES.

T1 sequence (Q05941 23-502): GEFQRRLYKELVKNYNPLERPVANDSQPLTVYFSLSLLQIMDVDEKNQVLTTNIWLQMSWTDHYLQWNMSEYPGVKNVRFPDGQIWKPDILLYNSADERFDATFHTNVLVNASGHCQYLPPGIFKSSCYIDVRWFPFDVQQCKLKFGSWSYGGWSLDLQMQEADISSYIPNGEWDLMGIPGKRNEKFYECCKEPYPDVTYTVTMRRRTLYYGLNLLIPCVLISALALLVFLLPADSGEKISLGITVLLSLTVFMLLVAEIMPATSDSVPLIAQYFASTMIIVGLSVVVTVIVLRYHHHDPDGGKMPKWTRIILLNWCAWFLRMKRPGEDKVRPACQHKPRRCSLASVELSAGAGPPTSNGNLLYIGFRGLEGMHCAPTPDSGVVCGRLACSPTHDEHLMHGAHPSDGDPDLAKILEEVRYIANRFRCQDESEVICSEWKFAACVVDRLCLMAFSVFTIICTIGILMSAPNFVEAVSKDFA

One may read the melting point as the temperature, or range, at which the solid turns liquid. As usually defined, the EC50 is the concentration that produces a half-maximal response. Read a high EC50 as lower potency in that assay. With `c1ccc(-c2cnc(NC3=NCC4(CN5CCC4CC5)O3)s2)cc1` (centres unmarked) [Example 4, N-(5-Phenylthiazol-2-yl)-4H-1′-azaspiro[oxazole-5,3′-bicyclo[2.2.2]octan]-2-amine], the melting point lay within 187 to 189 °C. In data set [1] (setting [3]), this molecule gave an EC50 of less than 100 nM.
For `c1ccc2[nH]c(NC3=NCC4(CN5CCC4CC5)O3)nc2c1` (centres unmarked) [Example 8, N-(1H-benzo[d]imidazol-2-yl)-4H-1′-azaspiro[oxazole-5,3′-bicyclo[2.2.2]octan]-2-amine], in that order: 255 °C (dec.) and 100 to 1000 nM.
For `FC(F)Oc1ccc2nc(NC3=NC[C@@]4(CN5CCC4CC5)O3)sc2c1` [Example 22, (R)—N-(6-(Difluoromethoxy)benzo[d]thiazol-2-yl)-4H-1′-azaspiro[oxazole-5,3′-bicyclo[2.2.2]octan]-2-amine], in that order: 223 to 225 °C and 100 to 1000 nM.
For `FC(F)Oc1cc(NC2=NC[C@@]3(CN4CCC3CC4)O2)ncn1` [Example 144], in that order: 185 to 190 °C and less than 100 nM.
Regarding `c1ccc2nc(NC3=NC[C@@]4(CN5CCC4CC5)O3)cnc2c1` [Example 220], the melting point fell in the range of 212 to 215 °C. For the same molecule, the EC50 in data set [1] (setting [3]) was less than 100 nM.
Regarding `FC(F)COc1cc(NC2=NC[C@@]3(CN4CCC3CC4)O2)ncn1` [Example 233, (R)—N-(6-(2,2-Difluoroethoxy)pyrimidin-4-yl)-4H-1′-azaspiro[oxazole-5,3′-bicyclo[2.2.2]octan]-2-amine], the melting point is 83 to 88 °C. Further, the EC50 in data set [1] (setting [3]) was less than 100 nM.
With `COc1cccc(-c2cc(NC3=NC[C@@]4(CN5CCC4CC5)O3)ncn2)c1` [Example 238, (R)—N-(6-(3-Methoxyphenyl)pyrimidin-4-yl)-4H-1′-azaspiro[oxazole-5,3′-bicyclo[2.2.2]octan]-2-amine], the melting point fell in the range of 80 to 85 °C. Also, in data set [1] (FLIPR α7 (EC50, nM), Table 1), the EC50 came to 16 nM. This molecule had an EC50 in data set [1] (setting [3]) of less than 100 nM.
The molecule `CSc1cnc(NC2=NC[C@@]3(CN4CCC3CC4)O2)cn1` [Example 250, (R)—N-(5-(Methylthio)pyrazin-2-yl)-4H-1′-azaspiro[oxazole-5,3′-bicyclo[2.2.2]octan]-2-amine] yielded a melting point of 155 to 160 °C. This molecule yielded an EC50 in data set [1] (setting [3]) of less than 100 nM.
As to `Clc1cn(-c2cc(NC3=NC[C@@]4(CN5CCC4CC5)O3)ncn2)cn1` [Example 349, (R)—N-(6-(4-Chloro-1H-imidazol-1-yl)pyrimidin-4-yl)-4H-1′-azaspiro[oxazole-5,3′-bicyclo[2.2.2]octan]-2-amine], the EC50 in data set [1] (setting [4]) was less than 100 nM.
Still for that read-out and setting: in the case of `c1nc(NC2=NC[C@@]3(CN4CCC3CC4)O2)cc(-n2cncn2)n1` [Example 351, (R)—N-(6-(1H-1,2,4-triazol-1-yl)pyrimidin-4-yl)-4H-1′-azaspiro[oxazole-5,3′-bicyclo[2.2.2]octan]-2-amine] it was less than 100 nM.
For the molecule `COc1ccc(/C=C2\CCCN=C2c2cccnc2)c(OC)c1` [GTS-21], the “antigen-induced degranulation of mucosal mast cells” value in data set [2] is on record as “inhibits”.
